Laboratory results: PubChem BioAssay AID2060336 (Molecular Pharmacology Branch, DTP, NCI, 2025)

Test system: 958767-090-R-J1-PDC spheroid growth
Experiment: Anticancer human tumor 958767-090-R-J1-PDC patient-derived head and neck squamous carcinoma cell line growth inhibition [IpAb]
Details: spheroids with HUVEC and MSC; for IC50: curve of first compound; for viability, T/C: stronger effect = lower value
Outline: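 Multi-cell spheroids of 60% tumour cells, 25% HUVEC and 15% MSC in ultra-low-attachment U-bottom wells, treated with agents combined with ipatasertib or abemaciclib. Half-log ranges top out near clinical Cmax, or 10 microM when Cmax is unknown.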

[1] = second compound 0.01 µM, first compound 0.00316 µM
[2] = second compound 0.01 µM, first compound 0.01 µM
[3] = second compound 0.01 µM, first compound 0.0316 µM
[4] = second compound 0.01 µM, first compound 0.1 µM
[5] = second compound 0.0316 µM, first compound 0.00316 µM
[6] = second compound 0.0316 µM, first compound 0.01 µM
[7] = second compound 0.0316 µM, first compound 0.0316 µM
[8] = second compound 0.0316 µM, first compound 0.1 µM
[9] = second compound 0.1 µM, first compound 0.00316 µM
[10] = second compound 0.1 µM, first compound 0.01 µM
[11] = second compound 0.1 µM, first compound 0.0316 µM
[12] = second compound 0.1 µM, first compound 0.1 µM
[13] = second compound 0.316 µM, first compound 0.00316 µM
[14] = second compound 0.316 µM, first compound 0.01 µM
[15] = second compound 0.316 µM, first compound 0.0316 µM
[16] = second compound 0.316 µM, first compound 0.1 µM
[17] = second compound 1 µM, first compound 0.00316 µM
[18] = second compound 1 µM, first compound 0.01 µM
[19] = second compound 1 µM, first compound 0.0316 µM
[20] = second compound 1 µM, first compound 0.1 µM
[21] = second compound 0.01 µM, first compound 0.316 µM
[22] = second compound 0.01 µM, first compound 1 µM
[23] = second compound 0.01 µM, first compound 3.16 µM
[24] = second compound 0.01 µM, first compound 10 µM
[25] = second compound 0.0316 µM, first compound 0.316 µM
[26] = second compound 0.0316 µM, first compound 1 µM
[27] = second compound 0.0316 µM, first compound 3.16 µM
[28] = second compound 0.0316 µM, first compound 10 µM
[29] = second compound 0.1 µM, first compound 0.316 µM
[30] = second compound 0.1 µM, first compound 1 µM
[31] = second compound 0.1 µM, first compound 3.16 µM
[32] = second compound 0.1 µM, first compound 10 µM
[33] = second compound 0.316 µM, first compound 0.316 µM
[34] = second compound 0.316 µM, first compound 1 µM
[35] = second compound 0.316 µM, first compound 3.16 µM
[36] = second compound 0.316 µM, first compound 10 µM
[37] = second compound 1 µM, first compound 0.316 µM
[38] = second compound 1 µM, first compound 1 µM
[39] = second compound 1 µM, first compound 3.16 µM
[40] = second compound 1 µM, first compound 10 µM
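Also: spheroids exposed to agents for 7 days.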
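For viability, T/C in this document: 100% = DMSO vehicle control wells.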

| Compound | IC50 (second compound 0.01 µM) [nM] | IC50 (second compound 0.0316 µM) [nM] | IC50 (second compound 0.1 µM) [nM] | IC50 (second compound 0.316 µM) [nM] | IC50 (second compound 1 µM) [nM] | viability, T/C [3] [%] | viability, T/C [4] [%] | viability, T/C [7] [%] | viability, T/C [8] [%] | viability, T/C [11] [%] | viability, T/C [12] [%] | viability, T/C [15] [%] | viability, T/C [16] [%] | viability, T/C [19] [%] | viability, T/C [20] [%] | viability, T/C [21] [%] | viability, T/C [22] [%] | viability, T/C [25] [%] | viability, T/C [26] [%] | viability, T/C [29] [%] | also measured |
| --- | --- | --- | --- | --- | --- | --- | --- | --- | --- | --- | --- | --- | --- | --- | --- | --- | --- | --- | --- | --- | --- |
| CC(C)n1nc(-c2ccc3oc(N)nc3c2)c2c(N)ncnc21 + CCN1CCN(Cc2ccc(Nc3ncc(F)c(-c4cc(F)c5nc(C)n(C(C)C)c5c4)n3)nc2)CC1 | 15.7 | 13.5 | 22.8 | 24.8 | > 100 | 39.2 | 33.8 | 40.5 | 36.7 | 45.5 | 35.4 | 48.8 | 40 | 65.5 | 50.7 | – | – | – | – | – | viability, T/C (second compound 0.01 µM, first compound 0.000316 µM): 91.4%; viability, T/C (second compound 0.01 µM, first compound 0.001 µM): 92.4%; viability, T/C [1]: 84.2%; viability, T/C [2]: 57.2%; viability, T/C (second compound 0.0316 µM, first compound 0.000316 µM): 79.5%; viability, T/C (second compound 0.0316 µM, first compound 0.001 µM): 80.5%; viability, T/C [5]: 82.6%; viability, T/C [6]: 54.1%; viability, T/C (second compound 0.1 µM, first compound 0.000316 µM): 68.7%; viability, T/C (second compound 0.1 µM, first compound 0.001 µM): 73.1%; viability, T/C [9]: 70.3%; viability, T/C [10]: 61.6%; viability, T/C (second compound 0.316 µM, first compound 0.000316 µM): 70.6%; viability, T/C (second compound 0.316 µM, first compound 0.001 µM): 56.9%; viability, T/C [13]: 66.1%; viability, T/C [14]: 54.1%; viability, T/C (second compound 1 µM, first compound 0.000316 µM): 78.3%; viability, T/C (second compound 1 µM, first compound 0.001 µM): 75.9%; viability, T/C [17]: 64.8%; viability, T/C [18]: 68.4% |
| CC1(C)CCC(CN2CCN(c3ccc(C(=O)NS(=O)(=O)c4ccc(NCC5CCOCC5)c([N+](=O)[O-])c4)c(Oc4cnc5[nH]ccc5c4)c3)CC2)=C(c2ccc(Cl)cc2)C1 + CCN1CCN(Cc2ccc(Nc3ncc(F)c(-c4cc(F)c5nc(C)n(C(C)C)c5c4)n3)nc2)CC1 | 5780 | 4930 | 4090 | 3890 | 4050 | 88.7 | 90.8 | 75.5 | 83.4 | 63.5 | 60.7 | 57 | 50.6 | 61.2 | 61.3 | 71.5 | 95.8 | 59.4 | 70.9 | 66.6 | viability, T/C [23]: 121%; viability, T/C [24]: 10.4%; viability, T/C [27]: 102%; viability, T/C [28]: 5.08%; viability, T/C [30]: 50.3%; viability, T/C [31]: 70%; viability, T/C [32]: 7.55%; viability, T/C [33]: 57.2%; viability, T/C [34]: 57.2%; viability, T/C [35]: 79.2%; viability, T/C [36]: 3.5%; viability, T/C [37]: 59.8%; viability, T/C [38]: 59.6%; viability, T/C [39]: 70.9%; viability, T/C [40]: 4.55% |
| CCCS(=O)(=O)Nc1ccc(F)c(C(=O)c2c[nH]c3ncc(-c4ccc(Cl)cc4)cc23)c1F + CCN1CCN(Cc2ccc(Nc3ncc(F)c(-c4cc(F)c5nc(C)n(C(C)C)c5c4)n3)nc2)CC1 | > 10000 | 9200 | 8260 | > 10000 | > 10000 | 93.1 | 93.6 | 88.5 | 93.2 | 83.3 | 82 | 66.1 | 54.8 | 89.5 | 78.6 | 91.4 | 93.7 | 92.1 | 73.6 | 82.9 | viability, T/C [23]: 87.7%; viability, T/C [24]: 60.2%; viability, T/C [27]: 62%; viability, T/C [28]: 48.3%; viability, T/C [30]: 70.8%; viability, T/C [31]: 71.7%; viability, T/C [32]: 45.6%; viability, T/C [33]: 56.7%; viability, T/C [34]: 67.8%; viability, T/C [35]: 67.1%; viability, T/C [36]: 44.4%; viability, T/C [37]: 74.9%; viability, T/C [38]: 79.5%; viability, T/C [39]: 69.5%; viability, T/C [40]: 51.9% |
| COc1c(OCCCN2CCOCC2)ccc2c3n(c(=NC(=O)c4cnc(N)nc4)nc12)CCN3 + CCN1CCN(Cc2ccc(Nc3ncc(F)c(-c4cc(F)c5nc(C)n(C(C)C)c5c4)n3)nc2)CC1 | 7.95 | 8.66 | < 3.16 | 4.34 | 13 | 31.5 | 12.7 | 28.5 | 17 | 22.5 | 15.9 | 22.9 | 19.4 | 37 | 26.9 | 6.31 | 3.91 | 5.97 | 5.05 | 7.66 | viability, T/C [1]: 64.5%; viability, T/C [2]: 44.5%; viability, T/C [5]: 62.6%; viability, T/C [6]: 48.8%; viability, T/C [9]: 44.3%; viability, T/C [10]: 39.5%; viability, T/C [30]: 6.13%; viability, T/C [13]: 53%; viability, T/C [14]: 42.6%; viability, T/C [33]: 8.1%; viability, T/C [34]: 7.06%; viability, T/C [17]: 74.1%; viability, T/C [18]: 53.5%; viability, T/C [37]: 14.7%; viability, T/C [38]: 12.4% |
| Cc1nc(NC(=O)N2CCCC2C(N)=O)sc1-c1ccnc(C(C)(C)C(F)(F)F)c1 (stereo not given) + CCN1CCN(Cc2ccc(Nc3ncc(F)c(-c4cc(F)c5nc(C)n(C(C)C)c5c4)n3)nc2)CC1 | 171 | 59 | < 31.6 | < 31.6 | 141 | 65.3 | 56.4 | 57.6 | 40.5 | 49.9 | 43.3 | 39.5 | 39.3 | 62.6 | 56.2 | 42.7 | 31.7 | 36.4 | 27.2 | 34.9 | viability, T/C [23]: 19.3%; viability, T/C [24]: 11.2%; viability, T/C [27]: 15.9%; viability, T/C [28]: 9.45%; viability, T/C [30]: 24.9%; viability, T/C [31]: 15.8%; viability, T/C [32]: 9.36%; viability, T/C [33]: 27.6%; viability, T/C [34]: 20.7%; viability, T/C [35]: 17.1%; viability, T/C [36]: 10.8%; viability, T/C [37]: 38.3%; viability, T/C [38]: 31.5%; viability, T/C [39]: 19.9%; viability, T/C [40]: 13.2% |
